# Results from patent US20260021109A1, “PROSTANOID RECEPTOR AGONISTS AS NON-TUBERCULOUS ANTI-MYCOBACTERIAL AGENTS” (priority 2022, published 2026).
# Legend:
# M. abscessus [1] = assay: in vitro infection of THP1 monocytic human cell line with M. abscessus; assay type: cell-based; settings: for M. abscessus survival rate: THP1 cells, 48H, untreated control 2.7, p=0.005, FIG. 4A
# M. tuberculosis = assay: in vitro infection of THP1 monocytic human cell line with M. tuberculosis; assay type: cell-based; settings: THP1 cells, untreated control 0.50, p=0.0165, FIG. 4B
# M. marinum = M. marinum infection of zebrafish; assay type: in vivo; settings: zebrafish infected by M. marinum; FIG. 4C
# M. abscessus [2] = settings: zebrafish, in vivo
# M. abscessus [3] = assay: M. abscessus in liquid culture (absence of THP1 cells); assay type: cell-based; settings: liquid culture medium, no THP1 cells; Treprostinil 50 μM; versus untreated; FIG. 6
# [4] = system: zebrafish homolog of the EP2 receptor (EP2a); assay: CRISPR EP2a KO zebrafish infected with M. abscessus; assay type: in vivo; settings: M. abscessus infected control and F0 CRISPR EP2a KO zebrafish; FIG. 7
# From the text: To explore the mechanism of action of Treprostinil in this context, the zebrafish homolog of the EP2 receptor was knocked out using CRISPR and control and KO zebrafish were infected with M. abscessus. […] This definitively confirms that Treprostinil acts via an EP2-mediated host-directed therapeutic effect.
smiles,measurement,setting,value
CCCCC[C@H](O)CC[C@@H]1[C@H]2Cc3cccc(OCC(=O)O)c3C[C@H]2C[C@H]1O [Treprostinil],dose response of killing of M. abscessus,"M. abscessus [1]; FIG. 5B, THP1 killing of M. abscessus according to legend b39",dose response to the effect was also observed
same,M. abscessus survival rate,M. abscessus [1]; 400 nM,1.07
same,M. abscessus survival rate,M. abscessus [1]; 1 μM,1.24
same,M. tuberculosis survival rate,M. tuberculosis; 400 nM,0.44
same,M. tuberculosis survival rate,M. tuberculosis; 1 μM,0.37
same,effect on M. marinum numbers in zebrafish,M. marinum,no observable effect
same,killing of M. abscessus compared with imipenem,M. abscessus [2],significantly more effective than imipenem
same,direct antibiotic effect on M. abscessus growth,M. abscessus [3],no difference in growth
same,Treprostinil rescue in EP2a KO zebrafish,[4],completely abrogated
